Results: publication PMC9227096, “Design, Synthesis, and In Vitro, In Silico and In Cellulo Evaluation of New Pyrimidine and Pyridine Amide and Carbamate Derivatives as Multi-Functional Cholinesterase Inhibitors” (Pharmaceuticals, 2022)
Like-named read-outs stand apart in the source and are kept apart here.

Columns and labels:
equine BChE (eqBChE) [1] = molecular target: T1, equine BChE (eqBChE) (Equus caballus, UniProt P81908); assay: Ellman's spectrophotometric method, percent inhibition of eqBChE (zero time and after 1 h incubation); type: biochemical; conditions: read-out: % Inhibition vs. eqBChE ± SD; for inhibition at 9 µM: [I] 9 µM
T1 construct: purchased Sigma-Aldrich (Milan, Italy)
T1 sequence (P81908 whole entry): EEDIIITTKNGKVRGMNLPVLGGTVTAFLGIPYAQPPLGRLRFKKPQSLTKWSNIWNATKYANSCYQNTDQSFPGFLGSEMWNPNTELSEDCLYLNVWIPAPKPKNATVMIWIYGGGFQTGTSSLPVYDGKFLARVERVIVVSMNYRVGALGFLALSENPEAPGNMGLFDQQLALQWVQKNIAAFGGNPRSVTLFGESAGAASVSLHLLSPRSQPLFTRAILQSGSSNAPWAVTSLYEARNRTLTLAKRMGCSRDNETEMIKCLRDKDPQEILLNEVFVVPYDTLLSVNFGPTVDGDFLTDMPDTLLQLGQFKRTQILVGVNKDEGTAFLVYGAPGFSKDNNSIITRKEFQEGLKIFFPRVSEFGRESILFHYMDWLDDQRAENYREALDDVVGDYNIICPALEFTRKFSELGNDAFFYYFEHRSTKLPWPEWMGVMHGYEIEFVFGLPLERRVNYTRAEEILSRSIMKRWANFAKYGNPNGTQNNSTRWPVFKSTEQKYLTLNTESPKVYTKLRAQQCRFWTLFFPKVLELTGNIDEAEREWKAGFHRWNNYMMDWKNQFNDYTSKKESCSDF
Procedure: Regarding the synthesized compounds enzymatic inhibition studies were carried out on Electrophorus electricus AChE (EeAChE) and equine BChE (eqBChE), according to Ellman’s spectrophotometric method.
All other chemical and biological reagents and solvents used were of the highest analytical, commercially available grade. The water, utilized for the preparation of the phosphate buffer and of the solutions of compounds, was distilled and filtered on nylon membrane filters with 0.2 μm pore size with the Millipore® Filtration apparatus before each use. Micropipettes Labmate (BRAND Dig. 10–100 μL; Dig. 100–1000 μL; Dig. 0.1–2 μL) and Transferpette (HIGH TECH LAB LM200: 20–200 μL; LM5000: 1000–5000 μL) were used to collect the samples. The assays were carried out by double beam UV–Vis Lambda 40 Perkin Elmer spectrophotometer, using optical polystyrene cuvettes (10 × 10 × 45 mm, 340–800 nm optical transparency), each measure was repeated at least in triplicate. […] Vivaspin® 2 Sartorius, with a membrane of 3000 MWCO (molecular weight cutoff) consisting of polyethersulfone (PES), cellulose triacetate (CTA) and hydrosart, was used for the ultrafiltration procedures. An ALC PK110 bench-top centrifuge was used for centrifugation. The spectrophotometric method of Ellman, with minor modifications, was used to evaluate the inhibition of cholinesterase enzymes. […] EeAChE and eqBChE were periodically tested to evaluate the effective enzymatic activity.
An amount of 3.0 mL of a solution in 0.1 M phosphate buffer (pH = 7.4) containing DTNB (0.25 mM) and EeAChE (0.083 UmL^−1) or eqBChE (0.083 UmL^−1) were placed in a polystyrene cuvette of 1.0 cm path length; 1 µL of a solution in DMSO of the tested compound was added to obtain in cuvette concentration range 9 µM–0.09 µM. With this solution the blank was made.
Each experiment was repeated at least in triplicate.
The cuvettes were prepared consecutively at intervals of 3 min to allow equal incubation times.

equine BChE (eqBChE) [2] = molecular target: T1, equine BChE (eqBChE); assay: Inhibition constant and mechanism vs. eqBChE by Dixon's method; type: biochemical; conditions: inhibitor 200-1800 nM, acetylthiocholine 100-300 µM; for Ki: eqBChE, read-out: Ki ± SD
Procedure: The recorded data were analysed with the enzyme kinetic module of SigmaPlot in order to find the best fitting model of inhibition, using the linear regression analysis. The reference kinetic models used in the regression analysis were: competitive, non-competitive, uncompetitive and mixed. Each determination was repeated five times and incorrect values were discarded to reduce the standard deviation to within the limit of 5%. In this way, the regression lines obtained have a linear regression coefficient (R^2) higher than 0.98. […] The Dixon’s plots of tested compounds are reported in the Supplementary Materials (Figures S1 and S2).
The constant and the mechanism of inhibition vs. eqBChE were determined for the compounds 12 and 14. For each compound a 500 μM stock solution was prepared in H2O/DMSO and diluted in water to prepare solutions of opportune concentrations (10, 30 and 60 μM) in order to introduce the cuvette volumes ranging from 60 to 100 μL to obtain the desired final concentrations (200–1800 nM). The maximum amount of DMSO used for the preparation of the stock solution was calculated in order to obtain a DMSO content in cuvette of <0.033%.
An amount of 3.0 mL of 0.1 M phosphate buffer (pH = 7.4), containing DTNB (0.25 mM) and eqBChE (0.083 UmL^−1), were mixed with the opportune volume of inhibitor, to obtain, in the cuvette, a final inhibitor concentration between 200 and 1800 nM. With this solution the blank was made. […]. The absorbance variations were measured at 412 nm at 25 °C between 0.5 and 1.5 min.
In order to determine the inhibition constants (Ki) and inhibition mechanism the rates of hydrolysis at three different concentrations of substrate in the presence of five different concentration of inhibitor were measured. The recorded data were analyzed by the enzyme kinetic module of SigmaPlot (version 8.02), plotting the reciprocal of rate of hydrolysis (1/v, min/μM) vs. the concentration of inhibitor (nM), according to Dixon’s method in order to find the best fitting model of inhibition, as indicated by calculated linear regression coefficient R^2.

[3] = [I] 900 nM, 0.0833 U/mL enzyme, 100 µM acetylthiocholine
[4] = 0.0833 U/mL enzyme, 100 µM acetylthiocholine

Row | SMILES | inhibition at 0.9 µM (equine BChE (eqBChE) [1]; [3]) [%] | inhibition at 9 µM (equine BChE (eqBChE) [1]; [4]) [%] | Ki (equine BChE (eqBChE) [2]) [nM] | Mechanism of inhibition on eqBChE (equine BChE (eqBChE) [2]) | inhibition at 0.9 µM (equine BChE (eqBChE) [1]; 1 h, [I] = 900 nM, t = 1 h incubation at 25 °C) [%]
1 | O=C(NCCCCCCNc1ccccn1)c1ccccc1 [Compound 12, N-(6-(pyridin-2-ylamino)hexyl)benzamide] | 22 | 81 | 2990 ± 190 | Competitive | –
2 | O=C(Cc1ccc(Oc2ccccc2)cc1)NCCCCCCNc1ccccn1 [Compound 14, 2-(4-phenoxyphenyl)-N-(6-(pyridin-2-ylamino)hexyl)acetamide] | 45 | 88 | 621 ± 43 | Competitive | –
3 | O=C(NCCCCCCNc1ccccn1)Oc1ccccc1 [Compound 18, Phenyl (6-(pyridin-2-ylamino)hexyl)carbamate] | – | – | – | – | 79.6 ± 5.3
